The results in this text go back to patent US10676429B2, “Sulfamoyl-arylamides and the use thereof as medicaments for the treatment of hepatitis B” (priority 2012, dated 2020).

A value given as a limit tells only on which side of the number the result lay.

Data set [1] relates to HBV. In words: Anti-HBV activity in HepG2.117 cell line (Tet-off, intracellular HBV DNA, realtime PCR). Particulars: HepG2.117 cells, 3 days of treatment, intracellular HBV DNA, read-out: HepG2 117 EC50. The format is cell-based.
The test system of data set [2] is HepG2 cells. In words: Cytotoxicity in HepG2 cells, 4 days, Resazurin assay. Particulars: read-out: HepG2 4 days CC50; HepG2 cells, 4 days, Resazurin.
Data set [3] deals with HBV. Briefly: Anti-HBV activity in stable transfected HepG2.2.15 cell line (HBV DNA from secreted virions, realtime PCR). In kind it is cell-based. Particulars: HepG2.2.15 cells, 6 days of treatment, secreted virion HBV DNA, read-out: HepG2 2.15 EC50.
Data set [4] can be described thus: Cytotoxicity in HepG2 cells using CellTiter-Blue (6 days). As to conditions: human.
Data set [5] has as its system HepG2 cells. Described as above. As to conditions: read-out: HepG2 6 days CC50, 6 days, CellTiter-Blue.
Data set [6] in a line: Cytotoxicity in HepG2 cells, 4 days, Resazurin assay. As to conditions: human.
Where [7] appears, read: Hepatitis B virus, HepG2.117, 72 h.
Setting [8] is: Hepatitis B virus, HepG2.2.15, 144 h.

For `Cc1cc(NC(=O)c2cccc(S(=O)(=O)NC3CCC(O)C3)c2)ccc1F` (single isomer, unassigned) [Compound 145c, N-(4-fluoro-3-methyl-phenyl)-3-[[(1S,3S)-3-hydroxycyclopentyl]-sulfamoyl]benzamide or N-(4-fluoro-3-methyl-phenyl)-3-[[(1R,3R)-3-hydroxycyclopentyl]sulfamoyl]benzamide], the EC50 in data set [1] and in data set [3] was 0.34 µM each time. The CC50 in data set [2] was over 25 µM.
As for `Cc1cc(NC(=O)c2cccc(S(=O)(=O)NC3CCC(O)C3)c2)ccc1F` (single isomer, unassigned) [Compound 145d, N-(4-fluoro-3-methyl-phenyl)-3-[[(1S,3S)-3-hydroxycyclopentyl]-sulfamoyl]benzamide or N-(4-fluoro-3-methyl-phenyl)-3-[[(1R,3R)-3-hydroxycyclopentyl]sulfamoyl]benzamide], the EC50 came out at 0.64 µM in data set [1] and 0.4 µM in data set [3]. Also, the CC50 in data set [2] is over 25 µM.
On to `O=C(Nc1ccc(F)cc1)c1cccc(S(=O)(=O)NC2CCOCC2)c1` [Compound 1], for which the EC50 in data set [1] (setting [7]) stood at 1.67 µM; in data set [3] (setting [8]), 0.93 µM. The CC50 in data set [2] was over 100 µM.
The matching figures for `O=C(Nc1ccc(F)cc1)c1cccc(S(=O)(=O)NC2CCCC2)c1` [Compound 2]: 0.56 µM, 0.47 µM and 32.7 µM.
In the case of `O=C(Nc1ccc(F)cc1)c1cccc(S(=O)(=O)NC2COC2)c1` [Compound 3], the EC50 in data set [1] (setting [7]) stood at 3.05 µM; in data set [3] (setting [8]), 2.1 µM. For the same molecule, in data set [2], the CC50 was over 100 µM.
With `O=C(Nc1ccc(F)cc1)c1cccc(S(=O)(=O)NC2CCC2)c1` [Compound 5], the EC50 was determined as 0.9 µM in data set [1] (setting [7]) and 0.83 µM in data set [3] (setting [8]). Also, the CC50 in data set [2] was determined as 57.7 µM.
The matching figures for `O=C(Nc1ccc(F)cc1)c1cccc(S(=O)(=O)N[C@@H]2CCOC2)c1` [Compound 8]: 2.03 µM, 1.18 µM and over 100 µM.
Take `O=C(Nc1ccc(F)cc1)c1cccc(S(=O)(=O)N[C@H]2CCOC2)c1` [Compound 9]: the EC50 in data set [1] (setting [7]) turned out to be 1.36 µM; in data set [3] (setting [8]), 0.54 µM. For the same molecule, the CC50 in data set [2] is over 100 µM.
For `CCC(CC)NS(=O)(=O)c1cccc(C(=O)Nc2ccc(F)cc2)c1` [Compound 10] the same measures were 3.63 µM, 0.75 µM and 40.3 µM.
As for `O=C(Nc1ccc(F)cc1)c1cc(S(=O)(=O)NC2CCCCC2)ccc1F` [Compound 18], the EC50 is 1.3 µM in data set [1] (setting [7]) and 0.78 µM in data set [3] (setting [8]). The molecule further yielded a CC50 at 6 days in data set [4] of 51.6 µM. Further, in data set [2], the CC50 was over 50 µM.
In the case of `O=C(Nc1ccccc1)c1cc(S(=O)(=O)NC2CCCCC2)ccc1F` [Compound 19], the EC50 in data set [1] (setting [7]) is 0.6 µM; in data set [3] (setting [8]), 0.66 µM. Also, the CC50 at 6 days in data set [4] was found to be 42.5 µM. Besides, the CC50 in data set [2] is over 25 µM.
With `O=C(Nc1ccccc1)c1cc(S(=O)(=O)N2CCCCC2)c(Cl)cc1Cl` [Compound 20], the EC50 turned out to be 1 µM in data set [1] (setting [7]) and 0.5 µM in data set [3] (setting [8]). In data set [5], the CC50 was over 25 µM. In data set [6], this molecule registered a cytotoxic concentration (CC50) at 4 days of 79.6 µM.
Consider `Cc1cccc(NC(=O)c2cc(S(=O)(=O)N3CCCCC3)ccc2Cl)c1` [Compound 22], for which, in data set [4], the CC50 at 6 days is over 25 µM. The EC50 in data set [3] (setting [8]) was 0.52 µM.
Molecule `O=C(Nc1cccc(F)c1)c1cc(S(=O)(=O)N2CCCC2)c(Cl)cc1Cl` [Compound 24] registered a CC50 at 6 days in data set [4] of over 25 µM. In addition, the EC50 in data set [3] (setting [8]) came to 0.79 µM.
Take `O=C(Nc1ccccc1)c1cc(S(=O)(=O)NCc2ccccc2)ccc1Cl` [Compound 25]: the figures for the EC50 in data set [1] (setting [7]) and in data set [3] (setting [8]) were 1.02 µM and 0.8 µM, respectively. Besides, in data set [4], the 50% cytotoxic concentration (CC50) at 6 days was over 25 µM. In data set [6] (HepG2 cells), this molecule displayed a CC50 at 4 days of over 6.25 µM.
On to `CCN(CC)S(=O)(=O)c1ccc(Cl)c(C(=O)Nc2ccccc2)c1` [Compound 26], for which the CC50 in data set [5] is over 25 µM. Moreover, the EC50 in data set [3] (setting [8]) came out at 1.04 µM.
Regarding `Cc1cccc(NC(=O)c2cc(S(=O)(=O)N3CCOCC3)ccc2Cl)c1` [Compound 27], in data set [4], the CC50 at 6 days is over 25 µM. For the same molecule, in data set [3] (setting [8]), the EC50 turned out to be 1.13 µM.
With `CC(C)(C)NS(=O)(=O)c1cccc(C(=O)Nc2ccc(F)cc2)c1` [Compound 28], the figures for the EC50 in data set [1] (setting [7]) and in data set [3] (setting [8]) were 2.28 µM and 1.24 µM, respectively. Further, the CC50 in data set [2] amounted to 52.5 µM.
`O=C(Nc1ccc(F)cc1)c1cc(S(=O)(=O)N2CCOCC2)ccc1Cl` [Compound 29] yielded a CC50 at 6 days in data set [4] of over 25 µM. Moreover, in data set [3] (setting [8]), the EC50 amounted to 1.39 µM.
In the case of `O=C(Nc1ccc(Br)cc1)c1ccc(Cl)c(S(=O)(=O)N2CCCCCC2)c1` [Compound 30], the CC50 at 6 days in data set [4] was over 25 µM. Also, the EC50 in data set [3] (setting [8]) amounted to 1.67 µM.
On to `O=C(Nc1ccccc1)c1ccc(F)c(S(=O)(=O)NC2CCCCC2)c1` [Compound 31], for which the CC50 in data set [5] was determined as 16.4 µM. Also, in data set [3] (setting [8]), the EC50 was determined as 2.23 µM.
In the case of `COc1ccc(NC(=O)c2ccc(Cl)c(S(=O)(=O)N3CCCCCC3)c2)cc1` [Compound 32], the figures for the EC50 in data set [1] (setting [7]) and in data set [3] (setting [8]) were 4.58 µM and 2.59 µM, respectively. Further, half-maximal cytotoxicity in data set [4] (CC50 at 6 days) was put at 9.9 µM. The molecule further yielded a CC50 at 4 days in data set [6] (HepG2 cells) of over 25 µM.
In data set [4], `O=C(Nc1ccccc1Cl)c1ccc(Cl)c(S(=O)(=O)N2CCCCCC2)c1` [Compound 33] gave a CC50 at 6 days of over 25 µM. Further, the EC50 in data set [3] (setting [8]) was found to be 3.56 µM.
With `O=C(Nc1ccc(F)cc1)c1cccc(S(=O)(=O)N2CCCCC2)c1` [Compound 35], the EC50 in data set [1] (setting [7]) amounted to 2.7 µM; in data set [3] (setting [8]), 4.5 µM. In addition, the CC50 in data set [2] turned out to be 70.4 µM.
For `CN(C)S(=O)(=O)c1cccc(C(=O)Nc2ccc(F)cc2)c1` [Compound 37], the values for the EC50 in data set [1] (setting [7]) and in data set [3] (setting [8]) were 2.99 µM and 5.02 µM, respectively. In addition, the CC50 in data set [2] was over 100 µM.
With `O=C(Nc1ccc(Cl)cc1)c1cc(S(=O)(=O)NC2CCCCC2)ccc1F` [Compound 38], the EC50 in data set [1] (setting [7]) is 15.5 µM; in data set [3] (setting [8]) it was under 6.25 µM. In data set [4], this molecule showed a CC50 at 6 days of 18.4 µM. This molecule also had a CC50 at 4 days in data set [6] (HepG2 cells) of 22.1 µM.
As to `CC(=O)N1CCC(NS(=O)(=O)c2cccc(C(=O)Nc3ccc(F)cc3)c2)CC1` [Compound 39], the results for the EC50 in data set [1] (setting [7]) and in data set [3] (setting [8]) were 4.68 µM and 6.77 µM, respectively. In addition, the CC50 in data set [2] was over 100 µM.
Turning to `CC(=O)N1CCN(S(=O)(=O)c2cccc(C(=O)Nc3ccc(F)cc3)c2)CC1` [Compound 40], the EC50 in data set [1] (setting [7]) turned out to be 6.29 µM; in data set [3] (setting [8]) it was 7.1 µM. Besides, in data set [2], the cytotoxic concentration (CC50) was over 100 µM.
On to `O=C(Nc1ccc(F)cc1)c1cccc(S(=O)(=O)N2CCOCC2)c1` [Compound 41], for which the EC50 is 11 µM in data set [1] (setting [7]) and 8.49 µM in data set [3] (setting [8]). In addition, in data set [2], the CC50 was over 100 µM.
As for `O=C(Nc1ccccc1Cl)c1cc(S(=O)(=O)NC2CCCCC2)ccc1F` [Compound 42], the EC50 in data set [1] (setting [7]) was over 25 µM; in data set [3] (setting [8]) it was 11.6 µM. Moreover, in data set [4], the midpoint of cytotoxicity, the CC50 at 6 days, lay at 37.2 µM.
`O=C(Nc1cccc(Cl)c1)c1cc(S(=O)(=O)NC2CCCCC2)ccc1F` [Compound 43]: the EC50 in data set [1] (setting [7]) is over 25 µM; in data set [3] (setting [8]), 15.1 µM. Also, the CC50 at 6 days in data set [4] came to 36.3 µM. For the same molecule, the CC50 at 4 days in data set [6] (HepG2 cells) was over 25 µM.
In the case of `CN1CCN(S(=O)(=O)c2cccc(C(=O)Nc3ccc(F)cc3)c2)CC1` [Compound 44], the results for the EC50 in data set [1] (setting [7]) and in data set [3] (setting [8]) were 11.1 µM and 26.5 µM, respectively. Also, the CC50 in data set [2] was over 100 µM.
For the molecule `CN1CCC(NS(=O)(=O)c2cccc(C(=O)Nc3ccc(F)cc3)c2)CC1` [Compound 45], the EC50 in data set [1] (setting [7]) stood at 16 µM; in data set [3] (setting [8]), 59.3 µM. Further, in data set [2], the CC50 was over 100 µM.
With `CN(C1CCCC1)S(=O)(=O)c1cccc(C(=O)Nc2ccc(F)cc2)c1` [Compound 46], the EC50 is 11.1 µM in data set [1] (setting [7]) and 2.61 µM in data set [3] (setting [8]). Moreover, the CC50 in data set [2] came to 23.8 µM.
With `CC(C)NS(=O)(=O)c1cccc(C(=O)Nc2ccc(F)cc2)c1` [Compound 47], the results for the EC50 in data set [1] (setting [7]) and in data set [3] (setting [8]) were 0.96 µM and 0.74 µM, respectively. Further, the 50% cytotoxic concentration (CC50) in data set [2] turned out to be 57.5 µM.
For the molecule `O=C(Nc1cccc(F)c1)c1cccc(S(=O)(=O)NC2CCCC2)c1` [Compound 77], the values for the EC50 in data set [1] (setting [7]) and in data set [3] (setting [8]) were 0.43 µM and 0.27 µM, respectively. Also, the half-maximal cytotoxic concentration (CC50) in data set [2] was over 25 µM.
For the molecule `COc1cc(NC(=O)c2cccc(S(=O)(=O)N[C@H]3CCOC3)c2)ccc1F` [Compound 103], the EC50 was determined as 2.66 µM in data set [1] (setting [7]) and 2.33 µM in data set [3] (setting [8]). Also, the CC50 in data set [2] is over 25 µM.
The matching figures for `Cc1c(F)ccc(NC(=O)c2cccc(S(=O)(=O)N[C@H]3CCOC3)c2)c1F` [Compound 104]: 0.78 µM, 0.29 µM and over 25 µM.
For `Cc1cc(NC(=O)c2cccc(S(=O)(=O)N[C@H]3CCOC3)c2)c(F)cc1F` [Compound 106] the same measures were 3.3 µM, 2.22 µM and over 25 µM.
For `Cc1c(F)ccc(NC(=O)c2cccc(S(=O)(=O)NC3(C)COC3)c2)c1C` [Compound 115] the same measures were 1.65 µM, 2.74 µM and over 25 µM.
`Cc1c(NC(=O)c2cccc(S(=O)(=O)N[C@H]3CCOC3)c2)ccc(F)c1F` [Compound 118]: the EC50 in data set [1] (setting [7]) came out at 1.91 µM; in data set [3] (setting [8]), 3.63 µM. The cytotoxic concentration (CC50) in data set [2] is over 25 µM.
The matching figures for `Cc1cc(NC(=O)c2cccc(S(=O)(=O)NC3(C)COC3)c2)c(C)cc1F` [Compound 119]: 1.91 µM, 3.06 µM and over 25 µM.
